The results in this text go back to patent publication US20250136722A1, “CYTOTOXICITY TARGETING CHIMERAS” (GLAXOSMITHKLINE INTELLECTUAL PROPERTY DEVELOPMENT LIMITED, priority 2021, published 2025).

In assay [1] the target is T1, CHOK1 cells engineered to overexpress human CCR2 (Homo sapiens, UniProt P41597).
T1 construct: expressed in transfected cells; host or cells: CHOK1 cells
The assay is described as follows: Antibody dependent cellular cytotoxicity (ADCC) reporter assay (Example 199). The assay is classed as cell-based. To be noted: with anti-cotinine antibody SEQ ID NO: 11/12; CHOK1-human CCR2 target cells, Jurkat FcγRIIIa NFAT-luciferase reporter cells; 12-18 hours; read-out: ADCC Reporter Assay pEC50 (converted). The method, boiled down:
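Potency is reported as pEC50 from a nonlinear fit, averaged over runs, using luciferase signal divided by that of compound-free wells. The readout comes from NFAT-luciferase Jurkat cells expressing FcγRIIIa, mixed for 12–18 h with human CCR2-overexpressing CHOK1 cells, 1 pM–10 μM ARM compound and 0.01–200 μg/mL Fc-enhanced anti-cotinine IgG1.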

Assay [2] addresses Anti-cotinine antibody (SEQ ID NO: 11 / SEQ ID NO: 12, rabbit variable region with human IgG1 Fc domain). Briefly: Binding of anti-cotinine antibody to ARM compounds by SPR, Biacore T200, 37° C. (Example 202). The note with it: pH 7.4, rabbit variable region/human IgG1 Fc antibody captured on protein A. The method, then: Anti-cotinine antibodies having a heavy chain sequence of SEQ ID NO: 11 and a light chain sequence of SEQ ID NO: 12 (rabbit variable region with human IgG1 Fc domain containing a DE mutation (S239D/1332E)) were captured on one or more flow cells of a protein A sensor chip (Cytiva) using a Biacore T200 while reserving flow cell 1 as a reference. Following capture, a 3000 second wait step was included to reduce drift during compound analysis. ARM compounds of Formula (I) were then injected at 100 μL/min with 200 and 2000 second association and dissociation times. The entire experiment was run at 37° C. with running buffer containing 10 mM HEPES pH 7.4, 150 mM NaCl, 0.005% P20 and 1% DMSO. ARM compounds of Formula (I) were titrated with a top concentration of 200 nM using a 3-fold 5-point dilution series and a corresponding 5-injection buffer cycle was run for blank subtraction. Data were double referenced by subtracting the response of the reference flow cell from that of the antibody-containing flow cell and subsequently subtracting the referenced blank sensorgrams. Following compound analysis, the surface was regenerated using a 30 second injection of pH 1.5 glycine at a flow rate of 30 μL/min after which antibody was re-captured. The experiment was run using Biacore T200 control software and evaluated using Biacore T200 Evaluation software. Curves were fit with a 1:1 kinetic binding model to obtain kon(1/Ms), koff(1/s), Kd (M) determined as koff/kon, and residence time determined as 1/koff. (s).
Anti-cotinine antibody was tested for binding to ARMs compounds of Formula (I) of the invention in the above assay in or more experimental runs and the results are shown in Table 5 below. Affinity is reported as a pKd value. The pKd value is the negative log of the Kd value, wherein the Kd value is the dissociation constant measured in molar (M) as noted above. For compounds tested in more than one experimental run, the pKd value is reported as an average.

Where “and” joins values, the source holds several entries; their conditions need not be identical. Equal entries are not always repeated.

Regarding `CC(C)N(C)[C@@H]1CC[C@H](N2CC[C@H](Nc3ncnc4ccc(C(F)(F)F)cc34)C2=O)[C@H](NC(=O)CCNC2CCC3(CC2)CCN(CCCNC(=O)[C@H]2CC(=O)N(C)[C@@H]2c2cccnc2)CC3)C1` [Example 138, (2S,3S)-N-(3-(9-((3-(((1R,2S,5R)-5-(Isopropyl(methyl)amino)-2-((S)-2-oxo-3-((6-(trifluoromethyl)quinazolin-4-yl)amino)pyrrolidin-1-yl)cyclohexyl)amino)-3-oxopropyl)amino)-3-azaspiro[5.5]undecan-3-yl)propyl)-1-methyl-5-oxo-2-(pyridin-3-yl)pyrrolidine-3-carboxamide], in assay [1], the EC50 was 3980 pM. Moreover, the “pKd of Antibody for ARM Compound of Formula (I)” value (from here on “pKd of Antibody”) in assay [2] is reported as 9.0865.

For `CC(C)N(C)[C@@H]1CC[C@H](N2CC[C@H](Nc3ncnc4ccc(C(F)(F)F)cc34)C2=O)[C@H](NC(=O)COCCNC(=O)COCCOCCNC(=O)CCNC(=O)[C@H]2CC(=O)N(C)[C@@H]2c2cccnc2)C1` [Example 143, (2S,3S)-N-(1-(((1R,2S,5R)-5-(Isopropyl(methyl)amino)-2-((S)-2-oxo-3-((6-(trifluoromethyl)quinazolin-4-yl)amino)pyrrolidin-1-yl)cyclohexyl)amino)-1,7,16-trioxo-3,9,12-trioxa-6,15-diazaoctadecan-18-yl)-1-methyl-5-oxo-2-(pyridin-3-yl)pyrrolidine-3-carboxamide], the EC50 in assay [1] is 3240 pM. In addition, in assay [2], the “pKd of Antibody” value worked out at 9.275.

On to `CC(C)N(C)[C@@H]1CC[C@H](N2CC[C@H](Nc3ncnc4ccc(C(F)(F)F)cc34)C2=O)[C@H](NC(=O)COCCNC(=O)COCCNC(=O)CCOCCNC(=O)[C@H]2CC(=O)N(C)[C@@H]2c2cccnc2)C1` [Example 151, (2S,3S)-N-(1-(((1R,2S,5R)-5-(Isopropyl(methyl)amino)-2-((S)-2-oxo-3-((6-(trifluoromethyl)quinazolin-4-yl)amino)pyrrolidin-1-yl)cyclohexyl)amino)-1,7,13-trioxo-3,9,16-trioxa-6,12-diazaoctadecan-18-yl)-1-methyl-5-oxo-2-(pyridin-3-yl)pyrrolidine-3-carboxamide], for which the EC50 in assay [1] was 3030 pM. Also, in assay [2], the “pKd of Antibody” value is recorded as 9.0755.

For the molecule `CC(C)N(C)[C@@H]1CC[C@H](N2CC[C@H](Nc3ncnc4ccc(C(F)(F)F)cc34)C2=O)[C@H](NC(=O)C2CCN(C3CCN(C(=O)CCCCCCCCCNC(=O)[C@@H]4CC(=O)N(C)[C@H]4c4cccnc4)CC3)CC2)C1` [Example 157], the EC50 in assay [1] is 200 pM. In assay [2], the “pKd of Antibody” value is 10.135.

With `CC(C)N(C)[C@@H]1CC[C@H](N2CC[C@H](Nc3ncnc4ccc(C(F)(F)F)cc34)C2=O)[C@H](NC(=O)CCOCCNC(=O)COCCNC(=O)CCOCCNC(=O)[C@H]2CC(=O)N(C)[C@@H]2c2cccnc2)C1` [Example 163, (2S,3S)-N-(19-(((1R,2S,5R)-5-(Isopropyl(methyl)amino)-2-((S)-2-oxo-3-((6-(trifluoromethyl)quinazolin-4-yl)amino)pyrrolidin-1-yl)cyclohexyl)amino)-6,12,19-trioxo-3,10,16-trioxa-7,13-diazanonadecyl)-1-methyl-5-oxo-2-(pyridin-3-yl)pyrrolidine-3-carboxamide], the EC50 in assay [1] was 631 pM. Further, the “pKd of Antibody” value in assay [2] came out at 9.07.

Take `CC(C)N(C)[C@@H]1CC[C@H](N2CC[C@H](Nc3ncnc4ccc(C(F)(F)F)cc34)C2=O)[C@H](NC(=O)CCCNc2c(NCCOCCOCCOCCOCCNC(=O)[C@H]3CC(=O)N(C)[C@@H]3c3cccnc3)c(=O)c2=O)C1` [Example 164, (2S,3S)-N-(14-((2-((4-(((1R,2S,5R)-5-(Isopropyl(methyl)amino)-2-((S)-2-oxo-3-((6-(trifluoromethyl)quinazolin-4-yl)amino)pyrrolidin-1-yl)cyclohexyl)amino)-4-oxobutyl)amino)-3,4-dioxocyclobut-1-en-1-yl)amino)-3,6,9,12-tetraoxatetradecyl)-1-methyl-5-oxo-2-(pyridin-3-yl)pyrrolidine-3-carboxamide]: the EC50 in assay [1] was 1350 pM. Further, in assay [2], the “pKd of Antibody” value stood at 9.3225.

For the molecule `CC(C)N(C)[C@@H]1CC[C@H](N2CC[C@H](Nc3ncnc4ccc(C(F)(F)F)cc34)C2=O)[C@H](NC(=O)CCOCCOCCOCCNc2c(NCCNC(=O)[C@H]3CC(=O)N(C)[C@@H]3c3cccnc3)c(=O)c2=O)C1` [Example 168, (2S,3S)-N-(2-((2-((2-(2-(2-(3-(((1R,2S,5R)-5-(Isopropyl(methyl)amino)-2-((S)-2-oxo-3-((6-(trifluoromethyl)quinazolin-4-yl)amino)pyrrolidin-1-yl)cyclohexyl)amino)-3-oxopropoxy)ethoxy)ethoxy)ethyl)amino)-3,4-dioxocyclobut-1-en-1-yl)amino)ethyl)-1-methyl-5-oxo-2-(pyridin-3-yl)pyrrolidine-3-carboxamide], the EC50 in assay [1] is 793 pM. Further, in assay [2], the “pKd of Antibody” value is on record as 9.06.

For the molecule `CC(C)N(C)[C@@H]1CC[C@H](N2CC[C@H](Nc3ncnc4ccc(C(F)(F)F)cc34)C2=O)[C@H](NC(=O)[C@H]2CC[C@@H](NC(=O)COCCOCCNC(=O)CNC(=O)[C@H]3CC(=O)N(C)[C@@H]3c3cccnc3)CC2)C1` [Example 171, (2S,3S)-N-(2-((2-(2-(2-(((1S,4s)-4-(((1R,2S,5R)-5-(Isopropyl(methyl)amino)-2-((S)-2-oxo-3-((6-(trifluoromethyl)quinazolin-4-yl)amino)pyrrolidin-1-yl)cyclohexyl)carbamoyl)cyclohexyl)amino)-2-oxoethoxy)ethoxy)ethyl)amino)-2-oxoethyl)-1-methyl-5-oxo-2-(pyridin-3-yl)pyrrolidine-3-carboxamide], the EC50 in assay [1] is 802 pM. Also, the “pKd of Antibody” value in assay [2] was found to be 8.7865.

As for `CC(C)N(C)[C@@H]1CC[C@H](N2CC[C@H](Nc3ncnc4ccc(C(F)(F)F)cc34)C2=O)[C@H](NC(=O)CCCC(=O)NCCCOCCCNC(=O)CCCNC(=O)[C@H]2CC(=O)N(C)[C@@H]2c2cccnc2)C1` [Example 173, N^1-((1R,2S,5R)-5-(Isopropyl(methyl)amino)-2-((S)-2-oxo-3-((6-(trifluoromethyl)quinazolin-4-yl)amino)pyrrolidin-1-yl)cyclohexyl)-N5-(3-(3-(4-((2S,3S)-1-methyl-5-oxo-2-(pyridin-3-yl)pyrrolidine-3-carboxamido)butanamido)propoxy)propyl)glutaramide], the EC50 in assay [1] is 794 pM. The “pKd of Antibody” value in assay [2] is listed as 9.1415.

For the molecule `CC(C)N(C)[C@@H]1CC[C@H](N2CC[C@H](Nc3ncnc4ccc(C(F)(F)F)cc34)C2=O)[C@H](NC(=O)[C@H]2CC[C@@H](NC(=O)CCOCCNC(=O)COCCCNC(=O)[C@H]3CC(=O)N(C)[C@@H]3c3cccnc3)CC2)C1` [Example 175, (2S,3S)-N-(3-(2-((2-(3-(((1 S,4s)-4-(((1R,2S,5R)-5-(Isopropyl(methyl)amino)-2-((S)-2-oxo-3-((6-(trifluoromethyl)quinazolin-4-yl)amino)pyrrolidin-1-yl)cyclohexyl)carbamoyl)cyclohexyl)amino)-3-oxopropoxy)ethyl)amino)-2-oxoethoxy)propyl)-1-methyl-5-oxo-2-(pyridin-3-yl)pyrrolidine-3-carboxamide], in assay [1], the EC50 is 794 pM and 398 pM. Also, the “pKd of Antibody” value in assay [2] was 9.244.

In the case of `CC(C)N(C)[C@@H]1CC[C@H](N2CC[C@H](Nc3ncnc4ccc(C(F)(F)F)cc34)C2=O)[C@H](NC(=O)CCCC(=O)N[C@H]2CC[C@@H](CNC(=O)CCOCCNC(=O)[C@H]3CC(=O)N(C)[C@@H]3c3cccnc3)CC2)C1` [Example 179, N^1-((1R,2S,5R)-5-(isopropyl(methyl)amino)-2-((S)-2-oxo-3-((6-(trifluoromethyl)quinazolin-4-yl)amino)pyrrolidin-1-yl)cyclohexyl)-N^5-((1R,4S)-4-((3-(2-((2S,3S)-1-methyl-5-oxo-2-(pyridin-3-yl)pyrrolidine-3-carboxamido)ethoxy)propanamido)methyl)cyclohexyl)glutaramide], in assay [1], the EC50 is 724 pM. Also, the “pKd of Antibody” value in assay [2] stood at 9.24.
